Laboratory results: patent US6136835A (priority 1999, dated 2000)
Several values for one entry are separate records, joined by “and”; a condition that tells them apart may be missing. Equal values may be shown once. Read-outs that look alike come from different tables or passages of the source.

Tests used:
[1] = system: murine melanoma (B16); settings: for % Increase in survival time relative to control (100%) / Survivors in cancer model: mouse, in vivo
Procedure: In an in vivo mouse model for murine melanoma (B16) fluconazole was tested alone and in combination with adriamycin (doxorubicin) at various doses.

[2] = system: influenza; assay: in vitro model for influenza
[3] = system: solid tumors removed from patients; assay: In Vitro Human Tumor Colony Forming Units Test; assay type: cell-based; settings: for effective against tumors (number of tumors): continuous exposure or single dose experiment
Procedure: (§1) Solid tumors removed from patients are minced into 2 to 5 mm fragments and immediately placed in McCoy's Medium 5A plus 10% heat inactivated newborn calf serum lus 1% penicillin/streptomycin. Within 4 hours, these solid tumors are mechanically disassociated with scissors, forced through No. 100 stainless steel mesh, through 25 gauge needles, and then washed with McCoys medium as described above. Ascitic, pleural, pericardial fluids and bone marrow are obtained by standard techniques. The fluid or marrow is placed in sterile containers containing 10 units of preservative free heparin per ml. of malignant fluid or marrow. After centrifugation at 150× g for 10 minutes, the cells are harvested and washed with McCoy's medium plus 10% heat inactivated calf serum. The viability of cell suspensions is determined on a hemocytometer with trypan blue.
Cells to be cloned are suspended in 0.3% agar in enriched CMRL1066 supplemented with 15% heat inactivated horse serum, penicillin (100 units/ml), streptomycin ([…]), glutamine (2 mM ), insulin (3 units/ml), asparagine (0.6 mg/ml), and HEPES buffer (2 mM ). For the continuous exposure test each compound is added to the above mixture. Cells are placed in 35 mm petri dishes in a top layer of agar over an underlayer of agar to prevent growth of fibroblasts. Three plates are prepared for each data point. The plates are placed in a 37° C. incubator, and are removed on day 14 for counting of the number of colonies in each plate. The number of colonies (defined as 50 cells) formed in the 3 compound treated plates is compared to the number of colonies formed in the 3 control plates, and the percent colonies surviving at the concentration of compound can be tabulated. Three positive control plates are used to determine survival rate. Orthosodium vanadate at 200 μg/ml is used as the positive control. If there is <30% cells in the positive control when compared to the untreated control, the test is evaluated. […]

[4] = system: lung, non-small cell cancer; assay: In Vitro Human Tumor Colony Forming Units Test, lung, non-small cell; assay type: cell-based; settings: 50.0 μg/ml, continuous exposure
Procedure: as §1
(§2) Cells to be cloned are suspended in 0.3% agar in enriched CMRL1066 supplemented with 15% heat inactivated horse serum, penicillin (100 units/ml), streptomycin ([…]), glutamine (2 mM ), insulin (3 units/ml), asparagine (0.6 mg/ml), and HEPES buffer (2 mM ). For the continuous exposure test each compound is added to the above mixture. […] If there is <30% cells in the positive control when compared to the untreated control, the test is evaluated. […]

[5] = system: human influenza virus, strain AT2/Taiwan/1/64; assay: Anti viral evaluation with human influenza virus in mice; assay type: in vivo; settings: 21 days observation, virus dose ~90% lethality
[6] = system: Rhinovirus; settings: in vivo Rhinovirus
[7] = system: ovarian cancer; assay: In Vitro Human Tumor Colony Forming Units Test, ovarian; assay type: cell-based; settings: 50.0 μg/ml, continuous exposure
Procedure: as §1, §2

[8] = system: chronic hepatitis C; settings: interferon with or without ribavarin; cited from earlier work

OC(Cn1cncn1)(Cn1cncn1)c1ccc(F)cc1F [Fluconazole, 2-(2,4-difluorophenyl)-1,3-bis(1H-1,2,4-triazol-1-yl)propan-2-ol]
Toxic deaths ([1]; fluconazole 175 mg/kg, adriamycin 0): 0
Toxic deaths ([1]; fluconazole 350 mg/kg, adriamycin 0): 0
Toxic deaths ([1]; fluconazole 700 mg/kg, adriamycin 0): 0
% Increase in survival time relative to control (100%) [1]: 120% and 116% and 117%
Survivors in cancer model [1]: 0
activity in an in vitro model for influenza [2]: did not show activity
effective against tumors (number of tumors) ([3]; 0.5 μg/ml): 0/3
effective against tumors (number of tumors) ([3]; 5.0 μg/ml): 0/13
tumors with <50% survival (over all) ([3]; 50.0 μg/ml, continuous exposure): 4/13
effectiveness against lung, non-small cell cancer [4]: effective
Percent Mortality ([5]; 350 mg/kg oral): 0%
Percent Mortality ([5]; 700 mg/kg oral): 30%
activity in screening test [6]: Nor was it active
effectiveness against ovarian cancer [7]: effective

NC12CC3CC(CC(C3)C1)C2 [Amantadine]
Percent Mortality ([5]; 75 mg/kg oral): 0%

interferon
response rate [8]: about 25%

COc1cccc2c1C(=O)c1c(O)c3c(c(O)c1C2=O)C[C@@](O)(C(=O)CO)C[C@@H]3O[C@H]1C[C@H](N)[C@H](O)[C@H](C)O1 [Adriamycin]
Toxic deaths ([1]; fluconazole 0, adriamycin 2 mg/kg): 0
Toxic deaths ([1]; fluconazole 0, adriamycin 3 mg/kg): 0
Toxic deaths ([1]; fluconazole 0, adriamycin 4 mg/kg): 0
% Increase in survival time relative to control (100%) [1]: cures occurred
Survivors in cancer model [1]: 6/10 and 8/10 and 10/10
